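1) Cells in 96-well plates. 2) Compound, 48 h, 5 concentrations. 3) Linear interpolation between surrounding doses. 4) Unreached endpoint = highest concentration. Abbreviation: GI50, concentration required for 50% inhibition of growth.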 The source made the active and inactive calls. No stated cut-off is given here; in the data, active = GI50 up to about 1.1 µM and inactive = higher. Bounds are passed on as bounds.

Among the test systems are A498; A549; CCRF-CEM; COLO 205; DU-145; HCT-15; HL-60; HOP-62; IGROV-1; MCF7; Malme-3M; NCI/ADR-RES; SK-MEL-28; SK-MEL-2; SN12C; SR; SW-620; UACC-62; UO-31.
Holding throughout (assay): NCI-60 cell line screen, 48 h

Regarding `Cc1cccc(N2C(=O)C3ON(C(C(N)=O)c4ccccc4)C(c4c5ccccc5c(Cl)c5ccccc45)C3C2=O)c1C` (centres undefined), the GI50 in the assay with A498 was 11.9 µM (inactive); in the assay with A549 it was 14.3 µM (inactive); in the assay on CCRF-CEM, 2.55 µM (inactive); with COLO 205, 9.42 µM (inactive); with DU-145, 10.4 µM (inactive); in the assay on HCT-15 it was 7.38 µM. The GI50 with HL-60 was 4.12 µM (inactive); in the assay on HOP-62, 10.6 µM (inactive); in the assay on IGROV-1, 11.6 µM (inactive); in the assay on MCF7, 7.64 µM (inactive); in the assay on Malme-3M, 11.4 µM (inactive); in the assay on NCI/ADR-RES, 10.9 µM (inactive). Besides, the GI50 in the assay with SK-MEL-28 is 13 µM (inactive); in the assay on SK-MEL-2 it was 9.23 µM (inactive); in the assay with SN12C it was 8.07 µM (inactive); in the assay on SR it was 1.69 µM (inactive); in the assay with SW-620, 3.53 µM (inactive); in the assay on UACC-62, 6.84 µM (inactive). Further, the GI50 with UO-31 was 16.4 µM (inactive).

On to `N#C/C(C(=O)CCl)=C1\Nc2ccccc2O1`, for which the GI50 is 1.95 µM (inactive) in the assay with A498; 6.1 µM (inactive) with A549; 3.29 µM (inactive) with CCRF-CEM; 1.94 µM (inactive) in the assay on COLO 205; 10.2 µM (inactive) with DU-145; 2.01 µM with HCT-15. Besides, the GI50 in the assay with HL-60 was 2.43 µM (inactive); in the assay on HOP-62 it was 4.89 µM (inactive); in the assay on IGROV-1, 1.83 µM (inactive); with MCF7, 2.56 µM (inactive); in the assay with Malme-3M, 7.28 µM (inactive); in the assay with NCI/ADR-RES, 2.2 µM (inactive). For the same compound, the GI50 was 1.63 µM (inactive) in the assay with SK-MEL-28; 3.3 µM (inactive) in the assay with SK-MEL-2; 2.9 µM (inactive) in the assay with SN12C; 3.84 µM (inactive) with SR; 4.33 µM (inactive) in the assay on SW-620; 2.35 µM (inactive) in the assay on UACC-62. Further, the GI50 in the assay on UO-31 was 3.62 µM (inactive).

As to `O=C1CC(n2cccc2)c2cc(Br)sc21` (centres undefined), the GI50 in the assay on A498 is > 100 µM (inactive); in the assay on A549 it was > 100 µM (inactive); in the assay on CCRF-CEM, 18.7 µM (inactive); in the assay with COLO 205, > 100 µM (inactive); with DU-145, > 100 µM (inactive); in the assay on HCT-15 it was above 100 µM. Also, the GI50 is 14.5 µM (inactive) in the assay on HL-60; > 100 µM (inactive) in the assay with HOP-62; > 100 µM (inactive) with IGROV-1; 69.5 µM (inactive) in the assay with MCF7; > 100 µM (inactive) in the assay with Malme-3M; > 100 µM (inactive) with NCI/ADR-RES. For the same compound, the GI50 was > 100 µM (inactive) with SK-MEL-28; > 100 µM (inactive) with SK-MEL-2; 43.9 µM (inactive) with SN12C; 15.8 µM (inactive) in the assay on SR; 35 µM (inactive) with SW-620; > 100 µM (inactive) in the assay with UACC-62. Moreover, the GI50 in the assay with UO-31 was > 100 µM (inactive).

Regarding `Cc1[nH]c(-c2ccccc2)c(O)c1C(=O)OC12CC3CC(CC(C3)C1)C2`, the GI50 was 20.5 µM (inactive) in the assay with A498; 12.1 µM (inactive) in the assay with A549; 39 µM (inactive) in the assay with CCRF-CEM; 13.9 µM (inactive) in the assay with COLO 205; 15.6 µM (inactive) in the assay with DU-145; 11.9 µM in the assay on HCT-15. Besides, the GI50 is 55.6 µM (inactive) in the assay with HL-60; 14.7 µM (inactive) in the assay with HOP-62; 14.1 µM (inactive) with IGROV-1; 14.1 µM (inactive) in the assay with MCF7; 14.1 µM (inactive) with Malme-3M; 13.7 µM (inactive) in the assay on NCI/ADR-RES. Besides, the GI50 with SK-MEL-28 is 14.7 µM (inactive); with SK-MEL-2, 16.7 µM (inactive); with SN12C it was 16.4 µM (inactive); with SR it was 12.6 µM (inactive); in the assay with SW-620, 16.2 µM (inactive); in the assay with UACC-62 it was 17.3 µM (inactive). Further, in the assay with UO-31, the GI50 is 17 µM (inactive).

With `CCOC(=O)/C(C#N)=N\Nc1ccc(-n2c(C)nc3ccccc3c2=O)cc1`, the GI50 in the assay with A498 was > 100 µM (inactive); in the assay on A549, 73.6 µM (inactive); in the assay with CCRF-CEM it was > 100 µM (inactive); with COLO 205, 78.3 µM (inactive); in the assay on DU-145, 77.6 µM (inactive); in the assay on HCT-15 it was 62.1 µM. Further, the GI50 is 26.5 µM (inactive) in the assay on HL-60; > 100 µM (inactive) with HOP-62; 51.2 µM (inactive) in the assay with IGROV-1; 84.3 µM (inactive) in the assay with MCF7; 18.9 µM (inactive) with NCI/ADR-RES; 33.2 µM (inactive) with SK-MEL-28. Also, the GI50 in the assay with SK-MEL-2 was > 100 µM (inactive); in the assay on SN12C it was > 100 µM (inactive); with SR, 39.4 µM (inactive); in the assay with SW-620 it was 75.9 µM (inactive); in the assay with UACC-62 it was 70.3 µM (inactive); in the assay on UO-31, 50.4 µM (inactive).

Turning to `C=CCCC1CCCCC/C1=N\N(C)C` (centres undefined), the GI50 in the assay on A498 was > 100 µM (inactive); in the assay with A549, > 100 µM (inactive); in the assay with CCRF-CEM, > 100 µM (inactive); with COLO 205, > 100 µM (inactive); in the assay with DU-145 it was > 100 µM (inactive); with HCT-15 it was above 100 µM. The GI50 in the assay on HL-60, in the assay on HOP-62, with IGROV-1, with MCF7, with NCI/ADR-RES and in the assay on SK-MEL-28 was > 100 µM (inactive) throughout. Moreover, the GI50 in the assay on SK-MEL-2, with SN12C, in the assay on SR, with SW-620, in the assay on UACC-62 and with UO-31 was > 100 µM (inactive) in each case.

As to `C1=N\CCOCC/N=C/c2ccccc2OCc2cccc(n2)COc2ccccc2/1`, the GI50 was > 25 µM (inactive) with A498; > 25 µM (inactive) in the assay on A549; 4.76 µM (inactive) in the assay on CCRF-CEM; 13 µM (inactive) with COLO 205; 6.61 µM (inactive) with DU-145; 6.46 µM with HCT-15. The GI50 with HL-60 was 5.07 µM (inactive); in the assay with HOP-62 it was 16.5 µM (inactive); in the assay on IGROV-1, 6.3 µM (inactive); in the assay on MCF7, 4.32 µM (inactive); in the assay on Malme-3M, 4.53 µM (inactive); in the assay with NCI/ADR-RES, 3.39 µM (inactive). The GI50 is 8.13 µM (inactive) with SK-MEL-28; 8.63 µM (inactive) with SK-MEL-2; 5.96 µM (inactive) with SN12C; 0.977 µM (active) in the assay on SR; 4.79 µM (inactive) in the assay with SW-620; 2.27 µM (inactive) in the assay with UACC-62. The GI50 with UO-31 was 7.98 µM (inactive).

As to `N/C(=N\c1ccc(Cl)cc1)NS(=O)(=O)c1ccc(-c2ncccc2C(F)(F)F)s1`, the GI50 in the assay with A498 was 16.7 µM (inactive); in the assay with A549, 15.2 µM (inactive); in the assay on COLO 205, 42 µM (inactive); with DU-145 it was 17.1 µM (inactive); with HCT-15, 16.6 µM; with HL-60 it was 15.2 µM (inactive). Further, the GI50 in the assay with HOP-62 is 18.2 µM (inactive); in the assay with IGROV-1 it was 12 µM (inactive); in the assay on MCF7 it was 14.7 µM (inactive); in the assay with Malme-3M it was 15.2 µM (inactive); in the assay with NCI/ADR-RES, 18.8 µM (inactive); in the assay with SK-MEL-28, 16.9 µM (inactive). Further, the GI50 in the assay with SK-MEL-2 was 15.8 µM (inactive); with SN12C, 17.2 µM (inactive); in the assay with SR it was 10.5 µM (inactive); in the assay with SW-620, 15.3 µM (inactive); with UACC-62, 11.3 µM (inactive); in the assay with UO-31, 17.2 µM (inactive).

Values taken from ChEMBL document CHEMBL1201862, “PubChem BioAssay data set” (2004).
